The source of these data is ChEMBL document CHEMBL1201862, “PubChem BioAssay data set” (2004).

Test [1] concerns the target Potassium channel subfamily K member 3 (Homo sapiens, UniProt O14649). The experiment in a line: inhibition of human KCNK3 channel flux – CHO cells, FluxOR thallium flux, SAR follow-up (AID 652212). It is filed as functional.
Test [2] deals with Potassium channel subfamily K member 9 (Homo sapiens, UniProt Q9NPC2). The experiment in a line: KCNK9 flux blockade, concentration-response – cell-based, FluxOR thallium flux, selectivity assay for TASK1 inhibitor project, SAR follow-up (AID 652211).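 Note: potency is for inhibitors of the channel.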 It is filed as functional.
Potassium channel subfamily K member 9, sequence (Q9NPC2 whole entry): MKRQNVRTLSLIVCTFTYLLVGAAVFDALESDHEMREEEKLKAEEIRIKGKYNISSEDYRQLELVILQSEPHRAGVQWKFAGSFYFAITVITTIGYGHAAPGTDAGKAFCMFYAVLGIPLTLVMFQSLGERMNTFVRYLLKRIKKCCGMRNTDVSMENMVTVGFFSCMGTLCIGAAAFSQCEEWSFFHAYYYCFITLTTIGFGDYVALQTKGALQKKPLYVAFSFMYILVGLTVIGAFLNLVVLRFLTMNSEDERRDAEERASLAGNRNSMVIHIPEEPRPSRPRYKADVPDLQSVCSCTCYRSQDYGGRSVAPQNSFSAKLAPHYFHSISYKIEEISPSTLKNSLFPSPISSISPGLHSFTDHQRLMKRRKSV
Test [3] deals with T1, High affinity choline transporter 1 (Homo sapiens, UniProt Q9GZV3).
T1 sequence (Q9GZV3 whole entry): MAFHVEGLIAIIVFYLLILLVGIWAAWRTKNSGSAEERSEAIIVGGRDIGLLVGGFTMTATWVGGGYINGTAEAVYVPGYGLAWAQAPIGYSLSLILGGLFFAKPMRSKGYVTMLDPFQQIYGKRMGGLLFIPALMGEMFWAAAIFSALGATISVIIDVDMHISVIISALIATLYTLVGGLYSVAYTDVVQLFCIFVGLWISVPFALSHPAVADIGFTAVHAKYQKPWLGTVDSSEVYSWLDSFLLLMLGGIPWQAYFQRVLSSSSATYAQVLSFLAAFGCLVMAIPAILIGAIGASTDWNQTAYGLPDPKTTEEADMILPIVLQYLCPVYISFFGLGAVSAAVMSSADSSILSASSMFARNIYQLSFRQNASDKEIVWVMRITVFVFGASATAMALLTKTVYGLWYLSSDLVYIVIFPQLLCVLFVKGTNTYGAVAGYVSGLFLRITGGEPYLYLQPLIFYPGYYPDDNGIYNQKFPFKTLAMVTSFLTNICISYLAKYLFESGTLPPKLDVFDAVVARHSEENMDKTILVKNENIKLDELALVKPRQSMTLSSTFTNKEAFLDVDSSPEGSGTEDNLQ
The experiment in a line: inhibition of SLC5A7-mediated choline transport – cell-based, HEK-293 hCHT, [3H]-choline uptake, dose response (AID 652177). It is filed as functional.

Test [4] can be described thus: viability loss in HEK293 cells – cell-based, plate reader, cherry-picked samples, cytotoxicity control, dose response (AID 743446). It is filed as functional.
The nature of test [5]: A549 cell cytotoxicity, dose response, cytotoxicity control, plate reader, cherry-pick, antagonist series (AID 743412). It is filed as functional, cell-based.
Test [6] in a line: inhibition of bursicon-driven LGR2 cAMP signaling – cell-based, HEK293, CRE-luciferase reporter, cherry pick, dose response (AID 743342). It is filed as functional. For orientation: In a reporter assay the amount or activity of a reporter protein is the signal.
Test [7] can be described thus: toxicity toward HepG2 liver cells – cell-based, plate reader, cherry-pick, antagonist series, cytotoxicity control, dose response (AID 743416). It is filed as functional.
Test [8] in a line: blockade of melanocortin 4 receptor signaling – cell-based, plate reader, cherry pick, counter-screen for LGR2 antagonist project, dose response (AID 743444).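 Note: transfected HEK 293 cells stimulated with alpha-MSH peptide; potency of inhibitors of the alpha-MSH evoked signal.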 It is filed as functional.
Test [9] has as its target Neurotensin receptor type 1 (Homo sapiens, UniProt P30989). It is filed as functional.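 Note: Image-based confirmatory dose-response assay measuring agonist activity at NTR1; NTR1-expressing U2OS osteosarcoma cells imaged for beta-arrestin GFP spot formation; agonist potency where compounds increase beta-arrestin recruitment.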
Test [10] in a line: loss of viability in HepG2 cells – cell-based, CellTiter-Glo, cherry-picked, cytotoxicity control for Shn3 inhibitor project, dose response (AID 624134). It is filed as functional. (In ATP-based viability assays light output follows the ATP content of the culture.)
Test [11] can be described thus: non-specific 3'UTR reporter inhibition in Clone20-Shn3RL – cell-based, Renilla luciferase, cherry-picked, counter-screen for Shn3 inhibitor project, dose response (AID 624133). It is filed as functional. (A counterscreen serves to expose hits that act by an unwanted route or on another target.)
Test [12] concerns HEK293. The experiment in a line: NOD2 signaling inhibitors in MDP-stimulated cells, cell-based, uHTS, luminescence (AID 2001). It is filed as functional. Particulars: Homo sapiens.
For test [13], the target named is Nucleotide-binding oligomerization domain-containing protein 2 (Homo sapiens, UniProt Q9HC29). Kind of test: inhibition of NOD2-driven NF-kB reporter – cell-based, luminescence, uHTS, HEK293 (AID 1566). It is filed as functional.
Nucleotide-binding oligomerization domain-containing protein 2, sequence (Q9HC29 whole entry, the tested form may be a part): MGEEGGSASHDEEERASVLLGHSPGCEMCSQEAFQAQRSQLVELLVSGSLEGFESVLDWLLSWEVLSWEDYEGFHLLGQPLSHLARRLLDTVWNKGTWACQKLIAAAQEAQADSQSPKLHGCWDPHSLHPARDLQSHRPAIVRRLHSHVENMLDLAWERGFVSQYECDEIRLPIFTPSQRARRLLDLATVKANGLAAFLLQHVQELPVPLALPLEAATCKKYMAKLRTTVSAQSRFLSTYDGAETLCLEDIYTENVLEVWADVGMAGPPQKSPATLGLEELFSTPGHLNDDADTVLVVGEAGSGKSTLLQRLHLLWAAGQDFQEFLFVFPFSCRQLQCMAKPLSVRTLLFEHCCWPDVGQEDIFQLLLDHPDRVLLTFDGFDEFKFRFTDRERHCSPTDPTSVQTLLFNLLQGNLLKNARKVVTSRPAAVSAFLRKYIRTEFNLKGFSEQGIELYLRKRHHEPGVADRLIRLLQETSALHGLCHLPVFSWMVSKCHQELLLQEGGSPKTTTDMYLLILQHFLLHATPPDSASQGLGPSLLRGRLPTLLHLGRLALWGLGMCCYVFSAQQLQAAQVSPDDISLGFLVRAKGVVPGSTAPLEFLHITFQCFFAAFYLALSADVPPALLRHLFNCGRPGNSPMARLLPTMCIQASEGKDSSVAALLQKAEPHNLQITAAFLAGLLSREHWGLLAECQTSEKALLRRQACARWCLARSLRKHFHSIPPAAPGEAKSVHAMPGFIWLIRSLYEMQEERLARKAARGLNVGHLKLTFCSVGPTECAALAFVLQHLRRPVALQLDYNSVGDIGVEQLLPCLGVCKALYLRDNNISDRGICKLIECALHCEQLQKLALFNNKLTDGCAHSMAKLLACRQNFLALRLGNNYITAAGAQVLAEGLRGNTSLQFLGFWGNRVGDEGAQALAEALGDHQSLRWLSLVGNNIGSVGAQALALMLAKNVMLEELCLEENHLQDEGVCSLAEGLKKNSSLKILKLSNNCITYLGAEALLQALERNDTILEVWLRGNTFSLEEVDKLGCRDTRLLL
Test [14] in a line: reduction of Shn3 3'UTR-driven luciferase in osteoblasts – cell-based, Clone20 osteoblasts, firefly luciferase, cherry-picked, dose response (AID 624132).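 Note: firefly luciferase luminescence from reporter carrying the Shn3 3'UTR in osteoblasts.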 It is filed as functional.
In test [15] the target is 1-phosphatidylinositol 4,5-bisphosphate phosphodiesterase gamma-1 (Homo sapiens, UniProt P19174). Kind of test: Counterscreen for inhibitors of phospholipase C isozymes (PLC-B3): Fluorescence-based biochemical high throughput dose response assay to identify inhibitors of phospholipase C isozymes (PLC-gamma1).
1-phosphatidylinositol 4,5-bisphosphate phosphodiesterase gamma-1, sequence (P19174 whole entry): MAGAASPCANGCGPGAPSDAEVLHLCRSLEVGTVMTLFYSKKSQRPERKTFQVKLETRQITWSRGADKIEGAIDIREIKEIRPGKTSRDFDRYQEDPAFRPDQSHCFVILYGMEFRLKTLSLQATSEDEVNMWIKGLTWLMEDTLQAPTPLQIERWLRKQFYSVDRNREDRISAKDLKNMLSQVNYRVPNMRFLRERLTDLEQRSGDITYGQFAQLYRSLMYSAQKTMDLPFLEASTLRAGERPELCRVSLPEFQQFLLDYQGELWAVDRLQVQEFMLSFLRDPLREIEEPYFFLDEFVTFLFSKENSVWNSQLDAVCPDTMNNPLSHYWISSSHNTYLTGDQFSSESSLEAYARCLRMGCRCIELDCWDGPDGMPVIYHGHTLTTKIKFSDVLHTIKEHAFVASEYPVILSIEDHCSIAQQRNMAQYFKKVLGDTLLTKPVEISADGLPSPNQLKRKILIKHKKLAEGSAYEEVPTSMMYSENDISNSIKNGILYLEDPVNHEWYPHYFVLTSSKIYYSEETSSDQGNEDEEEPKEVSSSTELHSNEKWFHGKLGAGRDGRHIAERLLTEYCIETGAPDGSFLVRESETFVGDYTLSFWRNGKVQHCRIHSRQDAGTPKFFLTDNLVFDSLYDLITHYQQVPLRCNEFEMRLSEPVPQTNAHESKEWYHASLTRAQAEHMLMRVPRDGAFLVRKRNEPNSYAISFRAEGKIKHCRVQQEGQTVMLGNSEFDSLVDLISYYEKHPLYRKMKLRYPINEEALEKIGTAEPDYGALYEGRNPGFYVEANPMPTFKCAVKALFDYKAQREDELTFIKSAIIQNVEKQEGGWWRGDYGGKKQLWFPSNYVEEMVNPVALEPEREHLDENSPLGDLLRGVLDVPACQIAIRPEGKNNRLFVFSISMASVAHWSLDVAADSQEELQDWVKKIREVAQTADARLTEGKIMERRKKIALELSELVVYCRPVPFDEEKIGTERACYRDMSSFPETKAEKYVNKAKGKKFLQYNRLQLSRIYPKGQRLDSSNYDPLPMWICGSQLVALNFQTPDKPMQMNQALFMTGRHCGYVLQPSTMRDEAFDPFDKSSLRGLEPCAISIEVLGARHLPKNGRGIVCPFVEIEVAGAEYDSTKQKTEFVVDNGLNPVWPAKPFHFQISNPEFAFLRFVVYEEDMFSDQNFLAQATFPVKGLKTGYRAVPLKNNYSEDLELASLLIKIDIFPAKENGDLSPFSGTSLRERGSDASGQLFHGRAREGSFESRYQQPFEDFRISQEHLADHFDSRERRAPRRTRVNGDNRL
The test system of test [16] is HEK293. The experiment in a line: cells. It is filed as functional, cell-based. The conditions noted are these: Homo sapiens.
Test [17] concerns HEK293. The experiment in a line: cells. It is filed as functional, cell-based. The conditions noted are these: Homo sapiens. The source holds these as a separate data set.
Test [18] deals with 1-phosphatidylinositol 4,5-bisphosphate phosphodiesterase beta-3 (Homo sapiens, UniProt Q01970). The experiment in a line: Fluorescence-based biochemical high throughput dose response assay to identify inhibitors of phospholipase C isozymes (PLC-B3).
1-phosphatidylinositol 4,5-bisphosphate phosphodiesterase beta-3, sequence (Q01970 whole entry): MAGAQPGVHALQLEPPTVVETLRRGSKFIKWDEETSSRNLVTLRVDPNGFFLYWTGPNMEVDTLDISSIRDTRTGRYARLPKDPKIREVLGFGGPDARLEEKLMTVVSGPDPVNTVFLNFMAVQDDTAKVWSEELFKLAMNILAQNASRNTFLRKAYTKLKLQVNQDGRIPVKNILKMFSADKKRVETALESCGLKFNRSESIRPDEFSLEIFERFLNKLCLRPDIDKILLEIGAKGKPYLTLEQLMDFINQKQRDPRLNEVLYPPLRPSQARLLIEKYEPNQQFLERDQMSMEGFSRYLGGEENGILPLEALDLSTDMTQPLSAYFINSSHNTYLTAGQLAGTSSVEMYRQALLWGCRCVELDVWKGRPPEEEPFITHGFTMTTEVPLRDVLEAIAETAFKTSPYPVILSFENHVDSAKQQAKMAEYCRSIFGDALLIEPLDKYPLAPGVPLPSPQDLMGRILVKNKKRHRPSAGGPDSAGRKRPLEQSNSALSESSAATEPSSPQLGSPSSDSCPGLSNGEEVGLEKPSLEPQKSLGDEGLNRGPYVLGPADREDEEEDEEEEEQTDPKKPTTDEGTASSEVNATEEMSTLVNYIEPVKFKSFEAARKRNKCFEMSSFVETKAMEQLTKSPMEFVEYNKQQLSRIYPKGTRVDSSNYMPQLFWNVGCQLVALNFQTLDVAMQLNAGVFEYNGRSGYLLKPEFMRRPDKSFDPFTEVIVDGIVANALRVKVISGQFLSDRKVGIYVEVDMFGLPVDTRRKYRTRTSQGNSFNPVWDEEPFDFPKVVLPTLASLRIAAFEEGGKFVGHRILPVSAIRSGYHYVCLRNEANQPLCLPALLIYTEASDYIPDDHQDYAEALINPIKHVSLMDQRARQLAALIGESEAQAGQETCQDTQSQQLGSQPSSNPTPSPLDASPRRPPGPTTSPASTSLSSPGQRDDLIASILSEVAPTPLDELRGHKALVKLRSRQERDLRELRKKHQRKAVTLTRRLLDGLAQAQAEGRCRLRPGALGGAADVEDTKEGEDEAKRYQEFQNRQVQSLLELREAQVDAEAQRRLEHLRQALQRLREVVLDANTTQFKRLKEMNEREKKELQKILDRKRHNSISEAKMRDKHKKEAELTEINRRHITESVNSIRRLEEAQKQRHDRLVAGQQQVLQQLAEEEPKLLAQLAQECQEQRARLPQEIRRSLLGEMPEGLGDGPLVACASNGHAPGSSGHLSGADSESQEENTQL
Test [19] concerns HEK293. The experiment in a line: inhibition of NOD1-driven NF-kB reporter – cell-based, luminescence, uHTS, primary screen (AID 1578). It is filed as functional. The conditions noted are these: Homo sapiens.
Test [20] relates to HEK293. Kind of test: cells. It is filed as functional, cell-based. Particulars: Homo sapiens. The source holds these as a separate data set.
Test [21] can be described thus: blockers of bursicon-stimulated LGR2 cAMP reporter – cell-based, HEK293, CRE-luciferase reporter, cherry pick, set 2, dose response (AID 743343).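 Note: transfected cells were stimulated with diluted bursicon conditioned medium after compound addition.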 It is filed as functional.
Test [22] is described as follows: A Cell-Based Confirmatory Screen for Compounds that Inhibit VEEV, TC-83 (3). It is filed as functional.
For a further test, the system named is Cryptococcus neoformans. Kind of test: PubChem AID 686997. It is filed as functional, organism-based.
Test [23] has as its system HEK293. Kind of test: viability loss in HEK293T cells – cell-based, ATP luminescence, cherry-pick samples, cytotoxicity control, dose response (AID 687005).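 Note: cells exposed to compound for 48 hours.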 It is filed as functional. The conditions noted are these: Homo sapiens.
The test system of the next test is HeLa. Kind of test: viability loss in HeLa cells – cell-based, ATP luminescence, cherry-pick samples, cytotoxicity control, dose response (AID 687004). It is filed as functional. The conditions noted are these: Homo sapiens.
Test [24] can be described thus: HEK293 Cytotoxicity Assay Measured in Cell-Based System Using Plate Reader - 7071-01_Inhibitor_Dose_CherryPick_Activity_Set2. It is filed as functional.
The nature of test [25]: NIH3T3 cell viability loss – ATP luminescence, mouse fibroblasts, counter-screen, dose response (AID 2010).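 Note: cells exposed to compound for about 90 hours before reading.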 It is filed as functional, cell-based.
Test [26] has as its target Disintegrin and metalloproteinase domain-containing protein 17 (Homo sapiens, UniProt P78536). Kind of test: exosite inhibitors of ADAM17, dose response, biochemical (AID 743260).
The nature of test [27]: Trypanosoma cruzi growth suppression in host cells – NIH3T3 host cells, beta-gal luminescence, confirmation (AID 2044).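 Note: intracellular parasites grown in NIH/3T3 mouse fibroblasts as host cells; luminescent beta-galactosidase reporter signal from transgenic T. cruzi replicating inside host cells; inhibitors lower the luminescence signal.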 It is filed as functional, cell-based.
Test [28] in a line: inhibition of ADAM10 peptide cleavage – biochemical, FRET peptide substrate, recombinant human ADAM10, selectivity assay for ADAM17 exosite inhibitor project, dose response (AID 743259).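 Note: ADAM10 enzyme cleaving a FRET peptide substrate.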
The nature of test [29]: liver cell line viability loss – HepG2, luminescence plate reader, powder samples, set 2, cytotoxicity control, dose response (AID 651860). It is filed as functional, cell-based.
The target of test [30] is T2, Scavenger receptor class B member 1 (Mus musculus, UniProt Q61009). Kind of test: mouse SR-BI DiI-HDL transfer blockers – ldlA[mSR-BI] CHO cells, fluorescence plate reader, dry powder, set 9, dose response (AID 623880). It is filed as functional, cell-based.
T2 sequence (Q61009 whole entry): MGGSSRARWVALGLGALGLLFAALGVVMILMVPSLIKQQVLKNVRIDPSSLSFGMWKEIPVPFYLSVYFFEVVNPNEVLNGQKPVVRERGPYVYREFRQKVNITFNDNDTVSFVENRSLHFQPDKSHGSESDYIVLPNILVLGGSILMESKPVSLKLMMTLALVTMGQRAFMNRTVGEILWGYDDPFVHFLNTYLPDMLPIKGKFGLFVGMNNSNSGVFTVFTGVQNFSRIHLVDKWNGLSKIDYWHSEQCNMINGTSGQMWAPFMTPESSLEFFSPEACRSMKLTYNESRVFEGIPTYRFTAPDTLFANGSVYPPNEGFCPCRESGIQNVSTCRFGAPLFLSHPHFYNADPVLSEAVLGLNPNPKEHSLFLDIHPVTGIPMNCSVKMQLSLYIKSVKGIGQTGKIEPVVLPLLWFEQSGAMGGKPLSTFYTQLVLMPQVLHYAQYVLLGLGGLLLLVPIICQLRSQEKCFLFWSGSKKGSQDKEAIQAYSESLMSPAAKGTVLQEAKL
Test [31] deals with T2, Scavenger receptor class B member 1. Kind of test: blockers of DiI-HDL lipid transfer via SR-BI – cell-based, ldlA[mSR-BI] CHO, DiI fluorescence, dry powder, set 10, dose response (AID 624029). It is filed as functional.

Activity calls are given as the source filed them.

Neurotensin receptor type 1, sequence (P30989 whole entry): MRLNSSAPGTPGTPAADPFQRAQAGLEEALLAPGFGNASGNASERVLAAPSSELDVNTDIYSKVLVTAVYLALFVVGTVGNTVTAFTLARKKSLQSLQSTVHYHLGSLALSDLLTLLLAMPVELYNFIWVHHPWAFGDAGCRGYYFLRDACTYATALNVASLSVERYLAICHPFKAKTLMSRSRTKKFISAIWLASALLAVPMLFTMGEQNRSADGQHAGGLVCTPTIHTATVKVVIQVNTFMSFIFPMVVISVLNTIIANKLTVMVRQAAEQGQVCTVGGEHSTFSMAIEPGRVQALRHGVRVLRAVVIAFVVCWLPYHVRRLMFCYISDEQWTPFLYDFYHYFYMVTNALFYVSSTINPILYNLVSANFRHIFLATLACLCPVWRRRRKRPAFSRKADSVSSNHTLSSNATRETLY

As for `COc1cccc(OC)c1C(=O)Nc1cccc(NC(=O)c2cccc(C)c2)c1`, the values for the IC50 in test [1] and in test [2] were 0.148 µM (active) and 19.2 µM (active), respectively.

For the compound `CCn1cc(CNC(=O)c2ccc(OC)c(OC3CCN(C(C)C)CC3)c2)cn1`, the IC50 (as a rule, the concentration that gives 50% inhibition) in test [3] was 6.81 µM (active).

In the case of `COc1ccc(NC(=O)Nc2ccc3c(c2)C(=O)N([C@H](C)CO)C[C@H](C)[C@H](CN(C)CC2CCCCC2)OCCCC[C@H](C)O3)cc1`, the half-maximal activity concentration (AC50) (as a rule, the midpoint of the concentration-response curve, whichever way the signal moves) in test [4] is 40.3 µM (active); in [5], 17.9 µM (active); in [6], 38.9 µM (active); in [7], 13.7 µM (active); in test [8], 42.7 µM (active).

On to `CN(C(=O)COc1ccccc1C(=O)NCCOc1ccccc1)c1ccccc1`, for which the EC50 (commonly the concentration needed to bring the measured effect to its halfway point) in test [9] was 17.9 µM (active); in [13] it was 7.78 µM (active); in the test on HEK293 [19], 5.76 µM (active). The concentration at half-maximal activity (AC50) in test [10] is 51.9 µM (active); in [11], 4.23 µM (active); in [14] it was 1.57 µM (active); in test [4], 15.9 µM (active); in test [5] it was 20.8 µM (active); in test [7], 32.7 µM (active). Besides, the AC50 in test [8] was 11.2 µM (active); in [21], 12.8 µM (active). For the same compound, the IC50 with HEK293 [12] is 4.32 µM (active); in test [15] it was > 122 µM (inactive); in the test with HEK293 [16], 3.42 µM (active); with HEK293 [17] it was 3.82 µM (active); in test [18], > 122 µM (inactive); in the test with HEK293 [20], 11.2 µM (active).

Consider `O=c1c2cc([N+](=O)[O-])ccc2nc(CN2CCOCC2)n1-c1ccccc1F`, for which, in test [22], the IC50 is 9.6 µM (active).

For the compound `COC(=O)C1=C(C)N(Cc2ccc(Cl)cc2)C(=S)NC1c1cccc(OC)c1` (configuration not stated), the AC50 in the test with Cryptococcus neoformans was 57.5 µM (active); in the test on HEK293 [23], 11.4 µM (active); in the test with HeLa, > 52 µM (inactive); in [24], 11.4 µM (active).

Turning to `COC(=O)C1=C(c2cc3ccccc3s2)C[C@@H]2CC[C@H]1N2C(=O)NCc1ccc(C(F)(F)F)cc1`, the values for the EC50 in test [25] and in test [27] were 8.21 µM (active) and 3.12 µM (active), respectively. Also, the IC50 in test [26] is > 69.5 µM (inactive); in test [28], > 7.72 µM (active).

With `Cc1ccc(S(=O)(=O)Nc2cc(C(C(=O)OC(C)C)C(=O)C(F)(F)F)c(O)c3ccccc23)cc1` (configuration not stated), the AC50 in test [29] was > 52 µM (inactive).

As to `C[C@@H]1CN([C@H](C)CO)C(=O)c2cc(NC(=O)C3CCOCC3)ccc2O[C@H]1CN(C)S(=O)(=O)c1ccc(Cl)cc1`, the half-maximal activity concentration (AC50) in [30] is 34.2 µM (active); in test [31] it was 34.8 µM (active).
